The text below walks through data of BindingDB's records for doi:10.1016/S0960-894X(01)80753-8 (1993).

SMILES strings stand for the structures.

The experiment concerns the target Platelet-activating factor receptor (Oryctolagus cuniculus). The experiment can be described thus: Inhibition of [3H]PAF binding to rabbit platelet membranes.
For orientation: Ki means the dissociation constant of the complex between target and ligand, obtained from inhibition or displacement. `O=C(c1ccccc1)c1cccc(NC(=O)[C@@H]2OC(=O)N3[C@@H](c4cccnc4)SC[C@@H]23)c1` [(1R,5R,7aR)-3-Oxo-5-pyridin-3-yl-dihydro-thiazolo[3,4-c]oxazole-1-carboxylic acid (3-benzoyl-phenyl)-amide] returned a Ki of 1200 nM.
The figure for `O=C(c1ccccc1)c1cccc(NC(=O)[C@@H]2OC(=O)N3[C@H](c4cccnc4)SC[C@@H]23)c1` [(1R,5S,7aR)-3-Oxo-5-pyridin-3-yl-dihydro-thiazolo[3,4-c]oxazole-1-carboxylic acid (3-benzoyl-phenyl)-amide] is 2500 nM; for `O=C(c1ccccc1)c1cccc(NC(=O)[C@H]2OC(=O)N3[C@@H](c4cccnc4)SC[C@@H]23)c1` [(1S,5R,7aR)-3-Oxo-5-pyridin-3-yl-dihydro-thiazolo[3,4-c]oxazole-1-carboxylic acid (3-benzoyl-phenyl)-amide] it is 24 nM; for `O=C(c1ccccc1)c1cccc(NC(=O)[C@H]2OC(=O)N3[C@H](c4cccnc4)SC[C@@H]23)c1` [(1S,5S,7aR)-3-Oxo-5-pyridin-3-yl-dihydro-thiazolo[3,4-c]oxazole-1-carboxylic acid (3-benzoyl-phenyl)-amide] it is 150 nM.
In the case of `O=C(c1ccccc1)c1cccc(NC(=O)[C@@H]2CSC(c3cccnc3)N2)c1` (stereo partly drawn) [(R)-2-Pyridin-3-yl-thiazolidine-4-carboxylic acid (3-benzoyl-phenyl)-amide], the inhibition constant (Ki) came out at 5 nM.
